Test results published in patent US11026426B2, “Oxadiazole and phenol derivatives as antibacterial and/or herbicidal agents” (NORTHERN ILLINOIS RESEARCH FOUNDATION, priority 2017, dated 2021).
Like-named read-outs stand apart in the source and are kept apart here.

Legend:
lettuce seeds = assay: Lettuce leaf assay; assay type: in vivo; parameters: key: 0 (no effect); 5(complete inhibition or bleaching); details: ranking 0-5
Method in brief: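 Qualitative assay: compounds in volatile organic solvent applied to filter paper in a petri dish, solvent evaporated, lettuce seeds and 5 mL water added to give test concentrations. Germination, root development and leaf bleaching scored days 3 and 4, ranked 0 (no effect) to 5 (complete inhibition or bleaching).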

[1] = target: Lycopersicon esculentum IspE (LeIspE) (Solanum lycopersicum, UniProt P93841); assay: Thermal shift assay against LeIspE; assay type: binding
Klebsiella pneumonia = assay: Antibacterial preliminary screening KP; assay type: cell-based; details: score 0-3; also: key: 0 represents no inhibition; 3 is comparable to commercial antibiotic control
Pseudomonas aeruginosa = assay: Antibacterial preliminary screening PA; assay type: cell-based; details: for PA score: score 0-3
[2] = test system: Corynebacterium pseudodiphtheriae; assay: Antibacterial preliminary screening CP; assay type: cell-based; details: score 0-3;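 also: 0 is no inhibition and 3 matches the commercial antibiotic control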
Micrococcus luteus = assay: Antibacterial preliminary screening ML; assay type: cell-based; details: score 0-3; also: key: 0 represents no inhibition; 3 is comparable to commercial antibiotic control
Corynebacterium xerosis = assay: Antibacterial preliminary screening CX; assay type: cell-based; details: score 0-3; also: key: 0 represents no inhibition; 3 is comparable to commercial antibiotic control
AtIspF = AtIspF (Arabidopsis thaliana, UniProt Q9CAK8); assay: University of Hamburg photometric enzymatic inhibition assay AtIspF; assay type: biochemical
Method in brief: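 Coupled photometric assay (CMP kinase/pyruvate kinase/lactate dehydrogenase, NADH consumption) with 2.4 mU AtIspF and 1 mM 4-diphosphocytidyl-2C-methylerythritol 2-phosphate, 2 mM ATP, in 100 mM Tris-HCl pH 8.0, 10 mM MgCl2, 1.1% DMSO. Monitored at 27 °C.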

Bacillus cereus = assay: Antibacterial preliminary screening BC; assay type: cell-based; details: score 0-3; also: key: 0 represents no inhibition; 3 is comparable to commercial antibiotic control
Mycobacterium smegmatis = assay: Antibacterial preliminary screening MS; assay type: cell-based; details: score 0-3; also: key: 0 represents no inhibition; 3 is comparable to commercial antibiotic control
LeIspE = LeIspE (Solanum lycopersicum, UniProt P93841); assay: University of Hamburg photometric enzymatic inhibition assay LeIspE; assay type: biochemical, Lycopersicon esculentum
Method in brief: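 Photometric coupled assay with pyruvate kinase/lactate dehydrogenase following NADH (460 μM). Mix: 100 mM Tris-HCl pH 8.0, 10 mM MgCl2, 1 mM DTT, 2.5 mM phosphoenolpyruvate, 2 mM ATP, 1 mM 4-diphosphocytidyl-2-C-methylerythritol, 1.1% DMSO, 2.4 mU IspE; incubated at 27° C.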

Escherichia coli = assay: Antibacterial preliminary screening EC; assay type: cell-based; details: score 0-3; also: key: 0 represents no inhibition; 3 is comparable to commercial antibiotic control
[3] = test system: Burkholderia thailandensis; assay type: cell-based; details: preliminary screening, score 0-3
[4] = target: T1, Mycobacterium tuberculosis IspD (MtIspD) (Mycobacterium tuberculosis, UniProt P9WKG9); assay: Thermal shift assay against MtIspD; assay type: binding
T1 sequence (P9WKG9 1-231): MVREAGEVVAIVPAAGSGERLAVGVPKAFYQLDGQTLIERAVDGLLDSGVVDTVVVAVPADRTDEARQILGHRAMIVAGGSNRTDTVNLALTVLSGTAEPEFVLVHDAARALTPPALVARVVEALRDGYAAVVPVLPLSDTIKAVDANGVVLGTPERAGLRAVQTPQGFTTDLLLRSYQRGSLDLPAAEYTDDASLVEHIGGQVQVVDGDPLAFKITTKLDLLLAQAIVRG

AtIspD = AtIspD (Arabidopsis thaliana, UniProt P69834); assay: University of Hamburg photometric enzymatic inhibition assay AtIspD; assay type: biochemical
Method in brief: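 Coupled photometric assay: 2.4 mU AtIspD with 1 mM (2R,3S)-2,3-dihydroxy-4-oxopentyl phosphate, 2.1 mM CTP, excess IspE (0.4 U), ATP, pyruvate kinase/lactate dehydrogenase and 460 μM NADH. Run in 100 mM Tris-HCl pH 8.0, 10 mM MgCl2, 1 mM DTT, 1.1% DMSO at 27 °C, monitored photometrically.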

AtIspF, sequence (Q9CAK8 53-231): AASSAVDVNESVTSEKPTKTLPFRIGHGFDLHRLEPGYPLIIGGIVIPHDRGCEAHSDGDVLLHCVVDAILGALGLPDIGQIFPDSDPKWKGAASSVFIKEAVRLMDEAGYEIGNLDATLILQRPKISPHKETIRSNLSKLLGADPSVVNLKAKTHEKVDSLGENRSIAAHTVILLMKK
AtIspD, sequence (P69834 62-302): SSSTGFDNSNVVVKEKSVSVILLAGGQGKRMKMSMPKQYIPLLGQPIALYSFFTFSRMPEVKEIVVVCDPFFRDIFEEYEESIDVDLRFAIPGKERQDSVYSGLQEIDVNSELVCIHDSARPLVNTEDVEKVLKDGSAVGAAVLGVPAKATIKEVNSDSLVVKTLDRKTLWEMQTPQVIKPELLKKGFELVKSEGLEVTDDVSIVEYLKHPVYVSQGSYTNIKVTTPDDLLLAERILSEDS
Lycopersicon esculentum IspE (LeIspE), sequence (P93841 89-401): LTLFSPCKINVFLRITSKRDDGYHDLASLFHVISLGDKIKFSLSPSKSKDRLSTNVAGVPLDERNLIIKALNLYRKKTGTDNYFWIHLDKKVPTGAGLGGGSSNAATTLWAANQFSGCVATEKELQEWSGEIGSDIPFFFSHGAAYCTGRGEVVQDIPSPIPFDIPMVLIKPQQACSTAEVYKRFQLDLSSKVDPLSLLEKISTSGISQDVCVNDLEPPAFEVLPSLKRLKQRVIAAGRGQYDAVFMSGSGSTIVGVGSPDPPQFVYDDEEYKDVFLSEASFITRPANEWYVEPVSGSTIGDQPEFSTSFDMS
LeIspE, sequence (P93841 89-401): as above

Compound	LeIspE melting point change [1] [°C]	LeIspE melting temp [1] [°C]	KP score (Klebsiella pneumonia)	PA score (Pseudomonas aeruginosa)	CP score [2]	ML score (Micrococcus luteus)	melting point [°C]	CX score (Corynebacterium xerosis)	IC50 (AtIspF; read-out: AtIspF IC50) [µM]	BC score (Bacillus cereus)	MS score (Mycobacterium smegmatis)	IC50 (LeIspE; read-out: LeIspE IC50) [µM]	EC score (Escherichia coli)	BT score [3]	MtIspD melting point change [4] [°C]	MtIspD melting temp [4] [°C]	IC50 (AtIspD; read-out: AtIspD IC50) [µM]	Bleaching (lettuce seeds; 0.15 mM)	Germination (lettuce seeds; 0.15 mM)	Root Dev. (lettuce seeds; 0.15 mM)	other results
CCc1nnc(-c2cc3ccccc3[nH]2)o1 [HGN-250, 2-ethyl-5-(1H-indol-2-yl)-1,3,4-oxadiazole]	−2.75	46.75	0	0	0	0	138 to 143	0	> 1000	0	0	> 1000	0	0	0.8	48.8	> 1000				Bleaching (lettuce seeds; 0.5 mM): 0; Germination (lettuce seeds; 0.5 mM): 1; Root Dev. (lettuce seeds; 0.5 mM): 0; Bleaching (lettuce seeds; 1.0 mM): 0; Germination (lettuce seeds; 1.0 mM): 3; Root Dev. (lettuce seeds; 1.0 mM): 0
c1ccc2[nH]c(-c3nnc(C4CCCCC4)o3)cc2c1 [HGN-254, 2-cyclohexyl-5-(1H-indol-2-yl)-1,3,4-oxadiazole]	−2.00	47.50	0	0	0	0	187 to 193	0	> 1000	0	0	> 1000	0	0	0.5	48.5	322	0	0	0	Bleaching (lettuce seeds; 0.3 mM): 0; Germination (lettuce seeds; 0.3 mM): 0; Root Dev. (lettuce seeds; 0.3 mM): 0
O=[N+]([O-])c1cc(-c2nnc(-c3nc4ccccc4s3)o2)cc([N+](=O)[O-])c1 [HGN-334, 2-(benzo[d]thiazol-2-yl)-5-(3,5-dinitrophenyl)-1,3,4-oxadiazole]	−1.50	48.00	0	0	0	0	180 to 185	0		0	0		0	0	0.0	48.0		0	0	0	Bleaching (lettuce seeds; 0.3 mM): 0; Germination (lettuce seeds; 0.3 mM): 0; Root Dev. (lettuce seeds; 0.3 mM): 0; IC50 (AtIspF): > 500 µM; IC50 (LeIspE): > 500 µM; IC50 (AtIspD): > 500 µM
C(=C\c1nnc(-c2nc3ccccc3s2)o1)/c1ccccc1 [HGN-335, (E)-2-(benzo[d]thiazol-2-yl)-5-styryl-1,3,4-oxadiazole]	−1.50	48.00	0	1	0	0	202 to 204	0	> 500	0	0	> 500	0	0	0.5	48.5	> 500				Bleaching (lettuce seeds; 0.1 mM): 0; Germination (lettuce seeds; 0.1 mM): 0; Root Dev. (lettuce seeds; 0.1 mM): 0; Bleaching (lettuce seeds; 0.2 mM): 0; Germination (lettuce seeds; 0.2 mM): 0; Root Dev. (lettuce seeds; 0.2 mM): 0; effectiveness against Pseudomonas aeruginosa (Pseudomonas aeruginosa): slightly effective
COc1ccc(-c2nnc(-c3nc4ccccc4s3)o2)cc1 [HGN-336, 2-(benzo[d]thiazol-2-yl)-5-(4-methoxyphenyl)-1,3,4-oxadiazole]	−1.25	48.25	0	0	0	0	167 to 169	0	> 500	0	0	493 ± 49	0	0		49.5	> 500	0	1	0	Bleaching (lettuce seeds; 0.3 mM): 0; Germination (lettuce seeds; 0.3 mM): 0; Root Dev. (lettuce seeds; 0.3 mM): 0
FC(F)(F)c1ccc(-c2nnc(-c3nc4ccccc4s3)o2)cc1 [HGN-337, 2-(benzo[d]thiazol-2-yl)-5-(4-(trifluoromethyl)phenyl)-1,3,4-oxadiazole]	−1.75	47.75	0	0	0	0	145 to 148	0	> 500	0	0	> 500	0	0	0.8	48.8	> 500	0	0	0	Bleaching (lettuce seeds; 0.3 mM): 0; Germination (lettuce seeds; 0.3 mM): 0; Root Dev. (lettuce seeds; 0.3 mM): 0
